Like-named read-outs stand apart in the source and are kept apart here.
Experiments:
[1] = test system: E. rostratum hyphal fragments; assay: hyphal fragment fungicidal ATP content assay (PBS, 1536-well); assay type: cell-based, Exserohilum rostratum; conditions: for Emax / Hyphae % M. Res. / Hyphae % Max. Resp.: 46 µM Amphotericin B = 100%; for IC50: read-out: Hyphae IC50
Experimental: (§1) Conidia and hyphae of E. rostratum were obtained as described by Richard et al., with the following modifications. Briefly, conidia were harvested from Potato Dextrose Agar (PDA) cultured media with 0.05% Tween 80, and the conidial suspension was filtered using a Cell Strainer (100 µm, BD Falcon REF 352340). After centrifugation at 700g for 10 min, the suspension was decanted and conidia were resuspended at 1×10^5 per ml in RPMI and counted in a hemocytometer. Hyphae were harvested from yeast extract peptone dextrose (YPD) culture media with 0.05% Tween 80. Hyphal fragments were sized by vortexing 15 sec twice with 0.4 mm glassbeads, and the hyphae suspension was filtered by cheese cloth twice. […] To normalize concentrations of hyphal fragments for batch to batch consistency, carbohydrate analysis was performed by a phenol-sulfuric acid method as previously described. The final stock concentration of hyphae was adjusted to 1.0 (OD490) per 100 µl.
(§2) The ATPLite assay kit, consisting of luciferase/luciferin and detergent, was used to quantitate cellular ATP levels as a marker for cell viability (Table 1). For assay development, hyphal fragments or conidia in PBS were plated in a seeding density of 3,750, 7,500 and 15,000 cellular particles/well with a final volume of 5 µl/well using the Multidrop-Combi dispenser in white 1536-well plates. Conidia or hyphae fragments were incubated for 24 h at 37°C in a 5% CO2 humidified atmosphere. ATPLite detection reagents were added at 4 µl/well. The assay plates were incubated at room temperature for 15 minutes before reading luminescence intensity on a ViewLux plate reader (Perkin Elmer, Waltham, MA). Conidia suspended in RPMI medium were inoculated at concentrations of 62.5, 125 and 250 conidia/well with a final volume of 5 µl/well in white 1536-well plates. The conidia assay was developed and optimized in the same way as the hyphal assay.
(§3) The LOPAC library (Sigma-Aldrich) has been extensively used for HTS assay validations, [18]. The NIH Chemical Genomics Center Pharmaceutical (NPC) collection was constructed in-house through a combined effort of compound purchasing and custom synthesis and recently expanded to 4096 compounds. […] 2.5 µl/well PBS was dispensed into 1536-well plates using a Multidrop-Combi dispenser. Compound in DMSO solution was transferred in a volume of 23 nl/well using a NX-TR pintool station (WAKO Scientific Solutions, San Diego, CA). This additional PBS step for compound addition was designed to prevent the potential fungal contamination of compound libraries. The hyphal fragments in PBS were then added at 2.5 µl/well for a final seeding density of 15,000 hyphal fragments/well using the Multidrop-Combi dispenser. The final compound concentration was 46 µM in the primary screen. The assay plates were incubated for 24 h at 30°C before the detection of cellular viability with the ATP content assay. Screen of conidia was performed in a similar way except that PBS was replaced with RPMI medium and conidia were plated for a final seeding density of 250 conidia/well.
(§4) The primary screen data and curve fitting were analyzed using software developed internally at the NIH Chemical Genomics Center (NCGC). Total signals for cellular viability (100% cellular viability) were calculated from the wells with DMSO solvent and the complete cell killing (0% cellular viability) was calculated from 46 µM amphotericin B treated wells. […] All values were expressed as the mean +/− SD (n≥3).

[2] = test system: E. rostratum conidia; assay: conidia growth inhibition ATP content assay (RPMI, 1536-well); assay type: cell-based, Exserohilum rostratum; conditions: for IC50: read-out: Conidia IC50; for Conidia IC50: Inact. = no significant activity at the highest compound concentration (46 µM)
Experimental: as §1, §2, §3, §4

[3] = test system: SH-SY5Y cells; assay: SH-SY5Y cytotoxicity counter-screen (ATP content assay); assay type: cell-based, Human; conditions: for SH-SY5Y % Max. Resp.: Table 2, SH-SY5Y, inact. = no significant activity at 46 µM; for SH-SY5Y % M. Res. / SH-SY5Y IC50: Table S1; for SH-SY5Y % M. Res.: Inact. = no significant activity at 46 µM; for SH-SY5Y IC50: Inact. = no significant activity at the highest compound concentration (46 µM)
Experimental: Human neuroblastoma SH-SY5Y cell line (Catalog No. CRL-2266) was purchased from ATCC (Manassas, VA). SH-SY5Y cell line was cultured in 175-cm^2 tissue culture flasks (Costar, Cambridge, MA) with 30 ml of growth medium at 37°C in a 5% CO2 humidified atmosphere. Growth medium was made with Dulbecco's Modified Eagle Medium: Nutrient Mixture F-12 with 10% fetal bovine serum (FBS). Growth medium was replaced every other day and cells were passed at 75% confluence.
as §2
Two small known compound libraries including the LOPAC (1280 compounds) and approved drugs (4096 compounds) were screened in parallel using the above optimized assays for hyphae and conidia in 1536-well plates (Fig. 4). […] A mammalian SH-SY5Y cell line was used in parallel as a counter-screen with the same ATP content assay kit to assess the specificity of these compounds for E. rostratum.

[4] = Exserohilum rostratum, Table 2, inact. = no significant activity in the primary screen, read-out: Hyphae % Max. Resp.
[5] = Exserohilum rostratum, Table 2, 24 h, inact. = no significant activity in the primary screen
[6] = Exserohilum rostratum, 24 h, Table 2, 24 h, inact. = no significant activity at the highest compound concentration (46 µM)
[7] = Exserohilum rostratum, Table 2, 46 µM Amphotericin B = 100%, inact. = no significant activity at 46 µM, read-out: Conidia % Max. Resp.
[8] = Table S1, Inact. = no significant activity in the primary screen
[9] = Table S1, 46 µM Amphotericin B = 100%, Inact. = no significant activity at 46 µM
[10] = Table 2, inact. = no significant activity in the primary screen
[11] = Table 2, 24 h, inact. = no significant activity in the primary screen
[12] = Exserohilum rostratum, Table S1, Inact. = no significant activity in the primary screen, read-out: Hyphae % M. Res.

Structure (SMILES) | Emax [2, 7] | SH-SY5Y % Max. Resp. ([3]; 46 µM Amphotericin B = 100%) | SH-SY5Y % Max. Resp. [3] | Hyphae % M. Res. [1, 8] | Hyphae IC50 [1, 8] | Conidia % M. Res. [2, 9] | Conidia IC50 ([2]; Table S1) | SH-SY5Y % M. Res. ([3]; 46 µM Amphotericin B = 100%) | SH-SY5Y IC50 [3] | further results
C=CCOC(Cn1ccnc1)c1ccc(Cl)cc1Cl (stereo not drawn) [Enilconazole] | 102% | inact. | inact. | – | – | – | – | – | – | Emax [1, 4]: 73%; IC50 [1, 5]: 0.312 µM; IC50 [2, 6]: 1.72 µM
CCCCCCOc1ccccc1C(N)=O [Exalamide] | – | – | – | Inact. | Inact. | Inact. | Inact. | Inact. | Inact. | –
Oc1ccc(Cl)cc1Sc1cc(Cl)ccc1O [Fenticlor] | 107% | inact. | inact. | – | – | – | – | – | – | Hyphae % Max. Resp. [1, 10]: inact.; Hyphae IC50 [1, 11]: inact.; IC50 ([2]; Exserohilum rostratum, 24 h): 5.72 µM
Cc1ccc(/C=N/n2c(-c3ccccc3)csc2=S)cc1 [Fezatione] | – | – | – | Inact. | Inact. | Inact. | Inact. | Inact. | Inact. | –
OC(Cn1cncn1)(Cn1cncn1)c1ccc(F)cc1F [Fluconazole] | – | – | – | Inact. | Inact. | Inact. | Inact. | Inact. | Inact. | activity in the hyphae assay ([1]; concentrations up to 46 µM): no activity; activity in the conidia assay ([2]; concentrations up to 46 µM): no activity
Nc1[nH]c(=O)ncc1F [Flucytosine] | – | – | – | Inact. | Inact. | Inact. | Inact. | Inact. | Inact. | –
O=P(O)(O)OC(Cn1cncn1)(Cn1cncn1)c1ccc(F)cc1F [Fosfluconazole] | – | – | – | Inact. | Inact. | Inact. | Inact. | Inact. | Inact. | –
COC1=CC(=O)C[C@@H](C)[C@]12Oc1c(Cl)c(OC)cc(OC)c1C2=O [Griseofulvin] | – | – | – | Inact. | Inact. | Inact. | Inact. | Inact. | Inact. | –
Oc1c(Cl)cc(Cl)c(Cl)c1Cc1c(O)c(Cl)cc(Cl)c1Cl [Hexachlorophene] | – | inact. | inact. | – | – | – | – | – | – | Hyphae % Max. Resp. [1, 10]: inact.; Hyphae IC50 [1, 11]: inact.; IC50 ([2]; Exserohilum rostratum, 24 h): 3.97 µM; Emax ([2]; Exserohilum rostratum, read-out: Conidia % Max. Resp.): 109%
Oc1c(I)cc(I)c2cccnc12 [Iodoquinol] | 99% | 58% | 26.3% | – | – | – | – | – | – | Hyphae % Max. Resp. [1, 10]: inact.; Hyphae IC50 [1, 11]: inact.; IC50 [2, 6]: 2.75 µM
CC(=O)N1CCN(c2ccc(OCC3COC(Cn4ccnc4)(c4ccc(Cl)cc4Cl)O3)cc2)CC1 (stereo not drawn) [Ketoconazole] | 101% | inact. | inact. | – | – | – | – | Inact. | Inact. | Emax [1, 4]: 74%; IC50 [1, 5]: 2.38 µM; Emax [1, 12]: 74%; IC50 [2, 6]: 3.47 µM; Emax ([2]; Exserohilum rostratum, Table S1, 46 µM Amphotericin B = 100%, Inact. = no significant activity at 46 µM, read-out: Conidia % M. Res.): 101%
CCCCCCC(=O)CCCCCC/C=C/C[C@@H](O)[C@H](O)[C@@](N)(CO)C(=O)O [Myriocin] | 92% | inact. | inact. | – | – | – | – | – | – | Emax [1, 4]: 81%; IC50 [1, 5]: 2.75 µM; IC50 [2, 6]: 13.6 µM
C[C@@H]1C/C=C/C=C/C=C/C=C/[C@H](O[C@@H]2O[C@H](C)[C@@H](O)[C@H](N)[C@@H]2O)C[C@@H]2O[C@](O)(C[C@@H](O)C[C@H]3O[C@@H]3/C=C/C(=O)O1)C[C@H](O)[C@H]2C(=O)O [Natamycin] | – | – | – | – | – | Inact. | Inact. | Inact. | Inact. | Emax [1, 12]: 66%; IC50 ([1]; Exserohilum rostratum, Table S1, Inact. = no significant activity in the primary screen): 46.9 µM
CC1(C)CCC(NC(=O)[C@@H](N)CCC(=O)O)CC1 [Neboglamine] | – | – | – | Inact. | Inact. | Inact. | Inact. | Inact. | Inact. | –
O=C1[O][Pt]2([NH][C@@H]3CCCC[C@H]3[NH]2)[O]C1=O [Oxaliplatin] | – | inact. | inact. | – | – | – | – | – | – | Hyphae % Max. Resp. [1, 10]: 76%; IC50 [1, 11]: 0.935 µM; Conidia % Max. Resp. ([2]; Table 2, 46 µM Amphotericin B = 100%, inact. = no significant activity at 46 µM): 95%; IC50 [2]: 4.95 µM
